Test results as given in ChEMBL document CHEMBL1136136, “Formylchromone derivatives as a novel class of protein tyrosine phosphatase 1B inhibitors” (Bioorg Med Chem Lett, 2003).
pIC50: −log10 of the molar value.

Key:
[1] = target: T1, Tyrosine-protein phosphatase non-receptor type 1 (Homo sapiens, UniProt P18031); assay: Inhibition of human Protein-tyrosine phosphatase 1B
T1 sequence (P18031 whole entry): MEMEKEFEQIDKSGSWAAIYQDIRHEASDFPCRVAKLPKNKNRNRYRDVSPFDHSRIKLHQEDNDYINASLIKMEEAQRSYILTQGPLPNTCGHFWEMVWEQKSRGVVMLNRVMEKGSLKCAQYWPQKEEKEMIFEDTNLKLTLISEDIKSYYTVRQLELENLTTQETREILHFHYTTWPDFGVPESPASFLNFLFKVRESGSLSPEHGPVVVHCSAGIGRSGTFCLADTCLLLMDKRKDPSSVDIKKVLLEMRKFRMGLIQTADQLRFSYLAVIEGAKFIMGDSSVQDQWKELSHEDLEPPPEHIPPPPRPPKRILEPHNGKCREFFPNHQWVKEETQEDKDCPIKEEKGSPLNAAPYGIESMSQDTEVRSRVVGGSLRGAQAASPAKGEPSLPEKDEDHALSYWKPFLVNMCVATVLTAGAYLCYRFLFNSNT

[2] = target: Receptor-type tyrosine-protein phosphatase F (Homo sapiens, UniProt P10586); assay: Compound was tested for selectivity against LAR
Sequence of Receptor-type tyrosine-protein phosphatase F (P10586 whole entry): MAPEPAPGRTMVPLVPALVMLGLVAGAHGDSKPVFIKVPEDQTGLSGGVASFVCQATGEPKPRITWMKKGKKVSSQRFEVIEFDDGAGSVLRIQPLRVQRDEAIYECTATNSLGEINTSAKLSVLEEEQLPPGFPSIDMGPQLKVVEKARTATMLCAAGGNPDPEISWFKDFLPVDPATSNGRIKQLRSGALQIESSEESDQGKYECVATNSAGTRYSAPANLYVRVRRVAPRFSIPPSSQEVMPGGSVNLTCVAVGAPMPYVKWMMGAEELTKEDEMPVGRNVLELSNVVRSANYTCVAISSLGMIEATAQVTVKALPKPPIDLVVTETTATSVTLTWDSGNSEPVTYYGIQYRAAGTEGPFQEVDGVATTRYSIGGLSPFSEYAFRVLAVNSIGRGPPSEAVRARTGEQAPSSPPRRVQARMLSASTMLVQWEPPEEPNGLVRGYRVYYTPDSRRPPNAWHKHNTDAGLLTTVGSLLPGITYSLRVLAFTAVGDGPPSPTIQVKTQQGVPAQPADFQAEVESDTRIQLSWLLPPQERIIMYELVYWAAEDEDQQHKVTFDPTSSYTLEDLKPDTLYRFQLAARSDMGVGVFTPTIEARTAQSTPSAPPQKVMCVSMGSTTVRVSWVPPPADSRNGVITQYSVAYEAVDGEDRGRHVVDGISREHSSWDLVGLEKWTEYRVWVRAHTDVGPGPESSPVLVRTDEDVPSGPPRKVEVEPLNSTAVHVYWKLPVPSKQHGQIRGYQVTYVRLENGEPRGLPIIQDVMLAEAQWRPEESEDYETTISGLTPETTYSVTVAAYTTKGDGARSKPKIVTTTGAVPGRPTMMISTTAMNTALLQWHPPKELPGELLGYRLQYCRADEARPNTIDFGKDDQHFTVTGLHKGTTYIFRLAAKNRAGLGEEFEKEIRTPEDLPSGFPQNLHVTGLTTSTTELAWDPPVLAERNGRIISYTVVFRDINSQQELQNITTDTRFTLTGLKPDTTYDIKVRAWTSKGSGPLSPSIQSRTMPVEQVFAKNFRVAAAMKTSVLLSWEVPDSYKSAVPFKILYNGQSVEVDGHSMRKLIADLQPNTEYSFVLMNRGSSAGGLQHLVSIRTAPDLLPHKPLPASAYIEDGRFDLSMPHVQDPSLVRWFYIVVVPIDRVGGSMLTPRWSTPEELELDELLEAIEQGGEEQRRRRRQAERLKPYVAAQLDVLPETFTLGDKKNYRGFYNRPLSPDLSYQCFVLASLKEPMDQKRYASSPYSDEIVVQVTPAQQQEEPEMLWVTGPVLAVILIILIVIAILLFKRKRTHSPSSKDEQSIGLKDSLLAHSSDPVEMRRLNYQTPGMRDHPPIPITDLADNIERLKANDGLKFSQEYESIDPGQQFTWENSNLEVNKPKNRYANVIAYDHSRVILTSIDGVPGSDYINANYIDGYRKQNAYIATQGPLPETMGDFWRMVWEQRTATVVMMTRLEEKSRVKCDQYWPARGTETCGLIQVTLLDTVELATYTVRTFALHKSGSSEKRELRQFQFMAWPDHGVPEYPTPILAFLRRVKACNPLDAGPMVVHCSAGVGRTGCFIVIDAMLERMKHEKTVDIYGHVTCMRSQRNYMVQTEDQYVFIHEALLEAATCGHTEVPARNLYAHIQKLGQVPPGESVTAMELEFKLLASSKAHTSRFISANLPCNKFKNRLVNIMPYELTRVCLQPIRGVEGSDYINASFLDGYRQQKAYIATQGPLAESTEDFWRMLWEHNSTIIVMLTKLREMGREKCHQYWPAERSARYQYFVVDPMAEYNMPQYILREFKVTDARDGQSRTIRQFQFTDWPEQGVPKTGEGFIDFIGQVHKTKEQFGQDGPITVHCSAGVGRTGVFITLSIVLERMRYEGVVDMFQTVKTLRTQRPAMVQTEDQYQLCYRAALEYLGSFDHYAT

[3] = target: T2, Tyrosine-protein phosphatase non-receptor type 2 (Homo sapiens, UniProt P17706); assay: Compound was tested for selectivity against human T cell protein tyrosine phosphatase; assay type: cell-based
T2 sequence (P17706 whole entry): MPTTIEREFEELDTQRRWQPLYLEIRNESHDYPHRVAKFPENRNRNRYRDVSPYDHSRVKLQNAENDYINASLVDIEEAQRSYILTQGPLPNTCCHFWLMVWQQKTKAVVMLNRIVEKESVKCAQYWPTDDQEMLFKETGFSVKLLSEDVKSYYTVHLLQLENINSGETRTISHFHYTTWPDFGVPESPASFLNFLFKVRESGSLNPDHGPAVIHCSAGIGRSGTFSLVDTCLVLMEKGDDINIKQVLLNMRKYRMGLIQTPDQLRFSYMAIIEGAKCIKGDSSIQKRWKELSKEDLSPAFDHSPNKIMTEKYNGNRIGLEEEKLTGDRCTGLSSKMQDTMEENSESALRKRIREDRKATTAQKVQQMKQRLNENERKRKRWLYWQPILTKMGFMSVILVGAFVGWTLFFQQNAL

O=Cc1coc2c(Br)cc(Br)cc2c1=O
pIC50 [1]: 4.70

O=Cc1coc2ccc([N+](=O)[O-])cc2c1=O
pIC50 [1]: 4.04

O=Cc1coc2c(ccc3ccccc32)c1=O
pIC50 [1]: 4.60

Cc1cc2occ(C=O)c(=O)c2cc1Cl
pIC50 [1]: 4.74

O=Cc1coc2ccc(Cl)cc2c1=O
pIC50 [1]: 4.55

O=C(O)c1cc2ccccc2oc1=O [COUMARIN-3-CARBOXYLIC ACID]
pIC50 [1]: < 3.00

O=Cc1coc2ccccc2c1=O
pIC50 [1]: 4.14

O=C(O)c1cc(=O)c2ccccc2o1 [CHROMOCARB]
pIC50 [1]: < 3.00

O=C(O)c1coc2ccccc2c1=O
pIC50 [1]: < 3.00

O=Cc1coc2ccc3ccccc3c2c1=O
pIC50 [2]: < 3.00 | pIC50 [3]: 3.11 | pIC50 [1]: 4.85

O=Cc1coc2ccc(Br)cc2c1=O
pIC50 [1]: 4.70

O=Cc1coc2c(Cl)cc(Cl)cc2c1=O
pIC50 [1]: 4.60

Nc1oc2ccccc2c(=O)c1C=O
pIC50 [1]: < 3.00

O=Cc1coc2ccc(-c3ccccc3)cc2c1=O
pIC50 [2]: < 3.00 | pIC50 [3]: 3.62 | pIC50 [1]: 4.85

O=Cc1coc2ccc(F)cc2c1=O
pIC50 [1]: 4.26

CC(C)c1ccc2occ(C=O)c(=O)c2c1
pIC50 [1]: 4.66

O=Cc1coc2ccc(-c3ccc(-c4ccccc4)cc3)cc2c1=O
pIC50 [2]: < 3.00 | pIC50 [3]: 4.29 | pIC50 [1]: 5.37
